Test results taken from patent US20240358665A1, “SMALL MOLECULE MELPHALAN HYDROGEL AND METHOD FOR PREPARING THE SAME” (Changzhi Medical College, priority 2024, published 2024).

Experiment: Change of transmittance over time at 790 nm (ultraviolet spectrophotometer)
Assay type: physicochemical
Conditions: melphalan dissolved in physiological saline (FIG. 5: 0.9% NaCl, content 2%)
Procedure: The small molecule melphalan hydrogels prepared in Embodiments 1 to 3 of the present disclosure are tested for transmittance, and the specific testing steps are as follows: • Prepare small molecule melphalan solutions according to the methods in Embodiments 1 to 3 above, take 3 mL of the solution and place it in a glass dish, and place the glass dish in an ultraviolet spectrophotometer, and measure the change of transmittance over time, at 790 nm. The phenomenon that the transmittance gradually decreases from 100% (solution state) to less than 10% proves that the small molecule melphalan solution is transformed into a hydrogel.

With `N[C@@H](Cc1ccc(N(CCCl)CCCl)cc1)C(=O)O` [melphalan, Melphalan] the “transmittance after gelation (falls from 100% in solution state)” value was “less than 10%”.
